Measurements: ChEMBL document CHEMBL1145862, “Identification of "latent hits" in compound screening collections” (J Med Chem, 2003)

How the values were obtained:
[1] = target: T1, Estrogen receptor (Homo sapiens) (UniProt P03372); details: CHO
T1 sequence (whole entry): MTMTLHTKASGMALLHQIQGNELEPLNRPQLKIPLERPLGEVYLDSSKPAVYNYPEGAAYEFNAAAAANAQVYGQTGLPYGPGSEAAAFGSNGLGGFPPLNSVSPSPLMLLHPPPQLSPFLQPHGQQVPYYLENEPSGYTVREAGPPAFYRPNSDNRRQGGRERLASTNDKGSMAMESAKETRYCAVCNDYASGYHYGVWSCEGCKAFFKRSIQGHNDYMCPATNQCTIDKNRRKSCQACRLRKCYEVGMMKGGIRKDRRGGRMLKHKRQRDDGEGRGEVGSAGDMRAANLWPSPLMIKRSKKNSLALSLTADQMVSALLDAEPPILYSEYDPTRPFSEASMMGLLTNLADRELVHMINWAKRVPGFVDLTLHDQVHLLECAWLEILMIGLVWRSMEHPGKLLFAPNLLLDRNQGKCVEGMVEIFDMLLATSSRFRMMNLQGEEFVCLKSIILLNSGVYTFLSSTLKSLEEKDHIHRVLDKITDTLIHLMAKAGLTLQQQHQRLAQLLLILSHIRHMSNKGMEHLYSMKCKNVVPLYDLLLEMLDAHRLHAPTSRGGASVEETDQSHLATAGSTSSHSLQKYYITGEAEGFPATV

[2] = target: T2, Estrogen receptor (Homo sapiens, UniProt P03372); test: Transcriptional agonist activity in Chinese hamster ovary cells expressing human Estrogen Receptor alpha; assay type: functional, cell-based
T2 sequence (P03372 whole entry): T1 sequence (whole entry)

[3] = target: T1, Estrogen receptor (Homo sapiens); test: Percent change in 17-beta-estradiol mediated transcriptional activation in CHO cells expressing human estrogen receptor alpha at 10e-6 M; assay type: functional, cell-based
[4] = target: T1, Estrogen receptor (Homo sapiens); test: Relative binding affinity for human estrogen receptor alpha expressed in CHO cells compared to Diethylstilbestrol Methyl Ether; assay type: cell-based
[5] = target: T1, Estrogen receptor (Homo sapiens); test: Relative Binding Affinity for human estrogen receptor alpha expressed in CHO cells compared to Diethylstilbestrol Dimethyl Ether; assay type: cell-based

Work on `COc1ccc2c(c1)CC[C@@H]1[C@@H]2CC[C@]2(C)[C@@H](O)CC[C@@H]12` yielded an HTS data [1] of 76.
In the case of `CC1C(=O)c2cc(O)ccc2OC1c1ccc(O)cc1` (configuration not stated), the EC50 [2] is reported as 4 nM.
For `COc1ccc(-c2cccc(-c3ccc(OC)cc3)c2)cc1`, the HTS data [3] was 7 and the EC50 [2] was > 10000 nM.
For `CC/C(=C(/CC)c1ccc(OC)cc1)c1ccc(O)cc1`, the RBA data [4] was 1.31.
Work on `CC/C(=C(/CC)c1ccc(OC)cc1)c1ccc(OC)cc1` yielded an RBA data [5] of -1.25.
Compound `Oc1ccc(-c2cc(-c3ccc(O)cc3)cc(-c3ccc(O)cc3)c2)cc1` has an EC50 [2] of 80 nM.
With `Oc1ccc(-c2cccc(-c3ccc(O)cc3)c2)cc1` the EC50 [2] was 800 nM.
Compound `COc1ccc2c(c1)CC[C@@H]1[C@@H]2CC[C@]2(C)[C@@H](OC)CC[C@@H]12` has an HTS data [1] of 0.
With `Oc1ccc(-c2ccc(-c3ccc(O)cc3)cc2)cc1` the EC50 [2] was 1200 nM.
In the case of `COc1ccc(C2Oc3ccc(O)cc3C(=O)C2C)cc1` (configuration not stated), the HTS data [3] is reported as 67 and the EC50 [2] is reported as > 10000 nM.
